Values quoted from earlier work, collected in patent US8202842B2, “Inhibition of cholera toxins by galatooligosaccharides (GOS)” (priority 2006, dated 2012).

Columns and labels:
cholera toxin = cholera toxin (Vibrio cholerae serotype O1, UniProt P01556); details: rabbit, in vivo
[1] = test system: uropathogenic Escherichia coli; details: soluble, monovalent

Chain of cholera toxin (P01556 whole entry, looked up): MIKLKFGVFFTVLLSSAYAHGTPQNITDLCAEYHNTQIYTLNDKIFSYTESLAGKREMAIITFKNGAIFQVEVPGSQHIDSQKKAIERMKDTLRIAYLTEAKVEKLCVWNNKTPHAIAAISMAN

Compound | Inhibition of fluid accumulation induced by cholera toxin (cholera toxin) | Interference with attachment and colonization of uropathogenic Escherichia coli [1]
3-sialyllactose | inhibitor of fluid accumulation | –
OC[C@H]1O[C@H](O[C@@H]2[C@H](O)[C@@H](O)[C@H](O[C@H]3[C@H](O)[C@@H](O)C(O)O[C@@H]3CO)O[C@@H]2CO)[C@H](O)[C@@H](O)[C@H]1O (some centres unmarked) [globotriose] | – | interfere with attachment and colonization
